Test results from article PMC10402865, “Fragment-based design, synthesis and biological evaluation of theophylline derivatives as ATAD2 inhibitors in BT-549 cells” (Journal of Enzyme Inhibition and Medicinal Chemistry, 2023).

Experiments:
BT-549 cells [1] = experiment: Cell viability (MTT) assay, anti-proliferative activity; type: cell-based; conditions: for IC50: Homo sapiens, MTT, 24 h, mean ± SD
Procedure: BT-549 cells were seeded at a density of 5 × 10^4 cells/ml in a 96-well plate. Following a 24-h incubation period, the cells were exposed to various concentrations of different compounds for the specified durations. Cell viability was evaluated using an MTT assay.

MDA-MB-231 cells [2] = system: MDA-MB-231 cells; parameters: method as in PMID 32174193; conditions: read-out: antiproliferative activity IC50 in MDA-MB-231 cells; cited from earlier work
ATAD2 = conditions: cited from earlier work
[3] = system: ATAD2, c-Myc, and p-c-Myc^Ser62 in BT-549 cells; experiment: Western blot of ATAD2, c-Myc and p-c-Myc Ser62; type: cell-based; conditions: BT-549 cells, 5, 10, 20 μM, 48h
Procedure: (§1) Cells were exposed to AM879, BAY-850 or compound 19f for the specified time intervals. Both adherent and floating cells were harvested and subsequently resuspended in a lysis buffer, followed by incubation at 4 °C for 1 h. Following centrifugation at 12,000 rpm for 20 min, the protein content of the supernatant was quantified using the BCA protein assay. Then protein were separated by 8–15% SDS-PAGE and transferred onto PVDF membranes. The membranes were blocked with blocking buffer and subjected to primary antibody incubation, followed by incubation with HRP-conjugated secondary antibody. Protein detection was achieved using ECL as the HRP substrate.

[4] = target: T1, ATAD2 recombinant bromodomain protein (Homo sapiens, UniProt Q6PL18); experiment: ATAD2 enzymatic assay by TR-FRET technology; type: binding; conditions: TR-FRET; for IC50: mean ± SD, read-out: Kinase inhibitory activity (IC50, μM) ATAD2
T1 sequence (Q6PL18 980-1092 limits assumed): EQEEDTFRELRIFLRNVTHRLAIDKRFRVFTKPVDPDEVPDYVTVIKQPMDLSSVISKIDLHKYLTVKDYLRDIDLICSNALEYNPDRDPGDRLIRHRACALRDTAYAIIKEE
Procedure: The assay was performed by TR-FRET technology using recombinant bromodomain and BET Ligand[8]. The compounds were diluted with indicated folds in 5% DMSO in reaction buffer and 2 µl of the dilution was added to a 20 µl reaction so that the final concentration of DMSO is 0.5% in all of the reactions. The 20 µl reaction mixture consists of the ATAD2 recombinant bromodomain protein, the indicated amount of the inhibitor, ligand, and the reactive dyes. The reaction mixture was incubated for 3 h before reading the TR-FRET signal. Fluorescence signals for both the donor and acceptor dyes were measured using a Tecan Infinite M1000 plate reader. Binding experiments were performed in duplicate at each concentration and the data were analysed using GraphPad Prism.

MCF-10A cells = experiment: Cell viability (Figure S1), normal breast cells; type: cell-based
BT-549 cells [5] = experiment: Apoptosis assay, Annexin-V/PI double staining; type: cell-based; conditions: BT-549 cells, 5, 10, 20 μM, 48h
Source text: To assess apoptosis, BT-549 cells were exposed to varying concentrations of compound 19f, and apoptosis ratios were quantified via Annexin-V/PI double staining.

BT-549 cells [6] = experiment: 3D cell culture, cell sphere diameter; type: cell-based
Procedure: For 3D cell culture, 10,000 cells were placed in 96-well spherical plates for 24h and treated with different concentrations of compound 19f, […] or AM879. The diameter of the cell balls was measured by photographing.

[7] = system: p-c-Myc^Ser62 in BT-549 cells; experiment: Immunofluorescence of p-c-Myc Ser62; type: cell-based; conditions: 48h
Procedure: To prevent non-specific antibody binding, BT-549 cells were treated with a blocking buffer (PBS +1.5% goat serum) prior to immunofluorescence staining. The cells were subsequently incubated with a p-c-Myc^Ser62 antibody (1:200) diluted in blocking buffer and allowed to incubate overnight at 4 °C. Afterward, the cells were further incubated with fluorescent-labelled secondary antibodies for 1 h at room temperature.

[8] = system: MMP-2 and E-cadherin in BT-549 cells; experiment: Western blot of migration markers; type: cell-based; conditions: BT-549 cells, 5, 10, 20 μM, 48h
Procedure: as §1

BT-549 cells [9] = experiment: EdU-488 newly synthesised DNA assay; type: cell-based; conditions: BT-549 cells, 5, 10, 20 μM, 48h
MDA-MB-231 cells [10] = experiment: Cell viability (Figure S1); type: cell-based
BT-549 cells [11] = experiment: Colony formation assay; type: cell-based
BT-549 cells [12] = experiment: Transwell migration assay; type: cell-based; conditions: BT-549 cells, 5, 10, 20 μM, 48h
Procedure: BT-549 cells were seeded into the upper chamber of a Transwell insert at a density of 15,000 cells per well. The cells were treated with either DMSO or compound 19f for 48 h, after which non-migrated cells were removed from the upper surface, while the migrated cells were stained with crystal violet. Then, the cells were washed with PBS and imaged using a phase-contrast microscope.

[13] = system: Bax, Bcl-2, Caspase-3, Caspase-8, Caspase-9, and PARP in BT-549 cells; experiment: Western blot of apoptotic marker proteins; type: cell-based; conditions: BT-549 cells, 5, 10, 20 μM, 48h
Procedure: as §1

BT-549 cells [14] = experiment: Wound healing assay; type: cell-based; conditions: BT-549 cells, 2.5, 5, 10, 20 μM, 48h

Compound	IC50 (BT-549 cells [1]) [µM]	IC50 [4] [µM]	melting point [°C]	IC50 (ATAD2) [µM]	expression levels of c-Myc and p-c-Myc Ser62 (western blot) [3]	expression of ATAD2 (western blot) [3]	other results
Cc1nnc2c(NC3CCN(CC(C)(C)F)CC3)cc(C(=O)N3C4Cc5ccccc5C3C(C(C)C)NC4=O)nn12 (centres unmarked) [AZ4347]	–	–	–	0.02	–	–	–
C[C@H]1CCN(S(=O)(=O)c2cc(NC(=O)CN3C(=O)N[C@@](C)(C4CC4)C3=O)ccc2Br)C1 [Compound 2]	–	–	–	0.063	–	–	–
CC(C)N1CCc2c(nnn2CC(=O)Nc2ccc(Br)c(S(=O)(=O)N3CC[C@H](C)C3)c2)C1 [GSK232]	–	–	–	0.032	–	–	–
CO[C@H]1CNC[C@@H](OCC2CCC(F)(F)CC2)[C@@H]1Nc1ncc(-c2cncc(C)c2)c2cc(C)c(=O)[nH]c12 [GSK8814]	–	–	–	0.059	–	–	–

The next lines start with results.

IC50 (BT-549 cells [1]) [µM]	IC50 [4] [µM]	melting point [°C]	Compound	IC50 (ATAD2) [µM]	expression levels of c-Myc and p-c-Myc Ser62 (western blot) [3]	expression of ATAD2 (western blot) [3]	other results
4.79 ± 0.52	3.49 ± 0.77	–	CC1=C(C#N)c2nc(N)c(C#N)cc2/C1=C\c1ccc(-c2cc(C(=O)O)ccc2Cl)o1 [AM879]	3.5	inhibited the expression levels of c-Myc and p-c-Myc^Ser62 in a dose-dependent manner	no significant effect on the expression of ATAD2	IC50 (MDA-MB-231 cells [2]): 2.43 µM
3.45 ± 0.59	–	–	COc1cc(Cl)c(C(=O)N[C@@H](CN[C@H]2CC[C@@H](N)CC2)Cc2ccc(C#N)cc2)cc1-c1ccc(CN[C@H](C)c2ccc(C)cc2)o1 [BAY-850]	0.02	reduced c-Myc expression and ser62 the phosphorylation at ser62 in a dose-dependent manner	inhibited the expression of ATAD2	–
5.43 ± 0.71	0.27 ± 0.05	–	COc1ccc(C(=O)NC2CCCC2)cc1NC(=O)Cn1cnc2c(=O)n(C)c(=O)n(C)c21 [Compound 19f, N-cyclopentyl-3–(2-(1,3-dimethyl-2,6-dioxo-1,2,3,6-tetrahydro-9H-purin-9-yl)acetamido)-4-methoxybenzamide]	–	inhibited the expression levels of c-Myc and p-c-Myc^Ser62 in a dose-dependent manner	no significant effect on the expression of ATAD2	anti-proliferative activity in BT-549 cells, in words (BT-549 cells [1]): anti-proliferative activity comparable to BAY-850 and AM879; antiproliferative activity relative to the positive drug BAY-850 (BT-549 cells [1]): about one-fold weaker; cytotoxicity to normal breast MCF-10A cells (MCF-10A cells): did not show obvious cytotoxicity; ATAD2 inhibitory activity, in words [4]: weaker ATAD2 inhibitory activity compared with BAY-850, but a stronger ATAD2 inhibitory activity than AM879; apoptosis induction, in words (BT-549 cells [5]): induce obvious apoptosis in a dose-dependent manner; diameter of 3D tumour cell spheres (BT-549 cells [6]): dose-dependently reduce the diameter of the 3D tumour cell spheres; p-c-Myc Ser62 level compared with AM879 and BAY-850 ([7]; BT-549 cells, 10 μM): more significant impact on p-c-Myc^Ser62 level than AM879, and a similar result to the BAY-850; fluorescence intensity of p-c-Myc Ser62 ([7]; BT-549 cells, 5, 10, 20 μM): reduce the fluorescence intensity of p-c-Myc^Ser62 in a dose-dependent manner; expression of E-cadherin and MMP-2 [8]: up-regulated the expression of E-cadherin and down-regulated MMP-2; fluorescence intensity of EdU-488 (BT-549 cells [9]): reduce the fluorescence intensity of EdU-488 in a dose-dependent manner; anti-proliferative activity in MDA-MB-231 cells, in words (MDA-MB-231 cells [10]): good anti-proliferative activity; colony formation ability (BT-549 cells [11]): inhibit the colony formation ability of BT-549 cells in a concentration-dependent manner; migrated cell number (BT-549 cells [12]): decreased the migrated cell number in a dose-dependent manner; cleavage of caspase-8 [13]: the cleavage of caspase-8 was not changed significantly; expression of Bax, cleavage of caspase-3, caspase-9 and PARP [13]: promoted the expression of Bax, the cleavage of caspase-3, caspase-9 and PARP; expression of Bcl-2 [13]: the expression of Bcl-2 was significantly decreased; relative wound area (BT-549 cells [14]): increased the relative wound area in a dose-dependent manner
> 30	> 25	189 to 190	Cn1c(=O)c2ncn(CC(=O)Nc3cccc(C(=O)NC4CCCCCC4)c3)c2n(C)c1=O [Compound 19j, N-cycloheptyl-3–(2-(1,3-dimethyl-2,6-dioxo-1,2,3,6-tetrahydro-9H-purin-9-yl)acetamido)benzamide]	–	–	–	–
> 30	> 25	194 to 196	Cc1ccc(C(=O)NC2CCCCCC2)cc1NC(=O)Cn1cnc2c(=O)n(C)c(=O)n(C)c21 [Compound 19k, N-cycloheptyl-3–(2-(1,3-dimethyl-2,6-dioxo-1,2,3,6-tetrahydro-9H-purin-9-yl)acetamido)-4-methylbenzamide]	–	–	–	–
> 30	> 25	197 to 198	COc1ccc(C(=O)NC2CCCCCC2)cc1NC(=O)Cn1cnc2c(=O)n(C)c(=O)n(C)c21 [Compound 19l, N-cycloheptyl-3–(2-(1,3-dimethyl-2,6-dioxo-1,2,3,6-tetrahydro-9H-purin-9-yl)acetamido)-4-methoxybenzamide]	–	–	–	–
